Source: patent US5951981A, “Thrombolytic agents with antithrombotic activity” (Diatide, Inc., priority 1996, dated 1999)

Tested on: human platelets in platelet-rich plasma (PRP)
Test: Platelet aggregation inhibition assay (ADP-induced, aggregometer)
Type: cell-based
Conditions: fresh human PRP, 250,000 platelets/μL; aggregation induced with 20 micromolar ADP at 37° C.; inhibitor added about 1 min before ADP; read-out: IC50 (concentration of inhibitor that reduced the extent of platelet aggregation by 50%)
Method: Platelet aggregation studies were performed essentially as described by Zucker (1989, Methods in Enzymol. 169: 117-133). Briefly, platelet aggregation was assayed with or without putative platelet aggregation inhibitory compounds using fresh human platelet-rich plasma (PRP), comprising 250,000 platelets per microlitre. Whole human blood (36 mL) were freshly drawn from volunteers who were medication-free for at least 2 weeks prior to blood draw. Blood was drawn into 4 mL of a 0.1M sodium citrate solution and centrifuged (150 g for 20 min at 22° C.) to pellet red blood cells. The supernatant, comprising PRP, was removed and the remaining blood recentrifuged at 8000 g for 10 min to produce platelet-poor plasma (PPP; used to dilute the PRP to a final concentration of 250,000 platelets/μL). Alternatively, PPP was prepared by centrifugation of PRP for 1 min in a tabletop microcentrifuge. PPP is also used as a negative control for platelet aggregation.
Platelet aggregation was induced by the addition at 37° C. of a solution of adenosine diphosphate to a final concentration of 20 micromolar, and the extent of platelet aggregation monitored using a four channel aggregometer (Model IV Plus, Helena Laboratories, Beaumont, Tex.). […] Inhibition curves for a variety of disintegrins comprising the peptide sequence RGD was determined for each batch of platelets tested as positive controls.

“CH2 CO-YD .Amp.GDCKGCG.amide [P734 peptide]” showed an IC50 of 67 nM.
